# Key:
# Rat pharmacokinetics = format: in vivo, SD rats; design: AUC: concentration or dose not given beside the values; details: for AUC / Cmax / Tmax / clearance / half-life / Vd: male, SD, plasma; for Vd: read-out: Vss
# Description: Example 53: Investigation of the Pharmacokinetic Characteristics of the Compounds of the Present Invention
# SD rats: male, 180-250 g, purchased from Guangdong Medical Laboratory Animal Center. Cynomolgus monkey: male, 4-6 kg, purchased from Guangzhou Chunsheng Biological Research Institute Co., Ltd. Beagle dog: male, 8-12 kg, developed in Kanglong Chemical (Ningbo) New Drug Technology Co., Ltd.
# Reagents: DMSO (dimethyl sulfoxide), PEG-400 (polyethylene glycol 400), normal brine, heparin, acetonitrile, formic acid, and propranolol (internal standard) are commercially available.
# Instrumentation: Thermo Fisher Scientific LC-MS (U300 UPLC, TSQ […] ULTRA triple quadrupole mass spectrometer).
# The compound was weighed and dissolved in DMSO-PEG-400-physiological brine (5:60:35, v/v/v) system. After the rats/monkeys were administered intravenously or by gavage, 200 μL of venous blood was collected at 5 min (not collected when administered by gavage), 15 min, 30 min, 1 h, 2 h, 4 h, 6 h, 8 h, and 24 h in heparinized EP tubes, centrifuged at 12000 rpm for 2 min, and the plasma was frozen at −80° C. for testing. A certain amount of the test substance was precisely weighed and dissolved in DMSO to 1 mg/mL, which was used as a stock solution. An appropriate amount of compound stock solution was accurately pipetted and diluted with acetonitrile to prepare a standard series of solutions. 20 μL of each of the above standard series solutions were accurately pipetted, added with 180 μL of blank plasma, vortexed and mixed to prepare plasma samples equivalent to plasma concentrations of 1, 3, 10, 30, 100, 300, 1000, 3000 and 5000 ng/mL. Two-sample analysis was performed for each concentration to establish a standard curve. 20 μL of plasma was taken out, added with 200 μL of internal standard propranolol (5 ng/mL) in acetonitrile, vortexed and mixed. It was centrifuged at 4000 rpm for 5 min, and the supernatant was collected for LC-MS analysis. LC-MS detection conditions were as follows:
# Chromatographic column: Thermo Scientific […] GOLD C-18 UPLC column, 100*2.1 mm, 1.9 μm.
# Mobile phase: water (0.1% formic acid)-acetonitrile for gradient elution according to the table below.
# After blood drug concentrations being detected by LC-MS, WinNonlin 6.1 software was used to calculate pharmacokinetic parameters by non-compartmental model method.
# human plasma = experiment: Anticoagulant effect on human plasma in vitro (APTT determination); format: biochemical; details: for aPTT EC1.5×: concentration giving APTT of 1.5× blank control; for aPTT EC2×: concentration giving APTT of 2× blank control
# Description: Example 51: Determination of the Anticoagulant Effect of the Compounds of the Present Invention on Human Plasma In Vitro
# Plasma: Human blood was collected in a vacuum blood collection tube containing 3.2% sodium citrate (volume ratio 1:9), centrifuged at 3000 rpm for 10 min at room temperature, and the plasma was collected, divided into EP tubes, and stored at −80° C.
# Reagents: APTT assay kit (Activated partial thromboplastin time assay kit, mindray), calcium chloride solution.
# Instrument: coagulation meter (mindray, C2000-A)
# The frozen human plasma in aliquots was thawed at room temperature and mixed well. 10 mM test compound dissolved in 100% DMSO was diluted with 100% DMSO to 1500, 750, 375, 187.5, 93.75, 46.88, 23.44, 11.72 μM. 98 μL of human plasma was added to a 1.5 mL EP tube, then 2 μL of compounds of different concentrations were added, and 2 μL of 100% DMSO was added for the blank group. They were incubated under a water bath at 37° C. for 10 min, and the samples were placed in the corresponding position of the coagulation analyzer to conduct APTT determination of the compounds.
# Curve fitting was performed with GraphPad Prism software, and EC1.5× and EC2× values were calculated respectively, i.e., the concentrations of the compounds corresponding to the APTT of 1.5× and 2× blank control group.
# Human Factor XIa = Human Factor XIa (Homo sapiens, UniProt P03951); experiment: Inhibition of human coagulation factor XIa by absorptiometry (substrate S-2366); format: biochemical; details: 37° C., 20 min incubation, absorbance 405 nm; read-out: hFXIa IC50
# Description: Example 50: Detection of the Biological Activity of the Compounds of the Present Invention on the Inhibition of Human Coagulation Factor XIa by Absorptiometry
# Buffer: 145 mM NaCl, 5 mM KCl, 1 mg/mL PEG 8000, 30 mM HEPES, pH 7.4
# 10 mM test compound dissolved in 100% DMSO was diluted with 100% DMSO to […]; 98 μL of FXIa enzyme solution (77.7 ng/mL) was added to each well of a 96-well plate, and 98 μL of buffer was added to the blank wells. 2 μL of compounds of different concentrations were added, and the blank and control wells were added with DMSO instead. They were mixed with a shaker, and incubated at 37° C. for 20 minutes.
# Finally, 100 μL of 800 μM substrate was added to each well, and its absorbance was measured at 405 nm.
# Chain of Human Factor XIa (P03951 388-625 limits assumed): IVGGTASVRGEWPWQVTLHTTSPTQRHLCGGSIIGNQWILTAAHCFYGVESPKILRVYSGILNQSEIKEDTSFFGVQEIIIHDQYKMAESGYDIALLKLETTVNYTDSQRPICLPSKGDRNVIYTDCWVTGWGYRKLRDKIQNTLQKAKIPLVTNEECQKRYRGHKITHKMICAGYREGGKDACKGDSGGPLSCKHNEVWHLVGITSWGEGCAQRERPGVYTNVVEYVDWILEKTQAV
# Chain of Human Factor XIa (P03951 19-387 partner limits assumed): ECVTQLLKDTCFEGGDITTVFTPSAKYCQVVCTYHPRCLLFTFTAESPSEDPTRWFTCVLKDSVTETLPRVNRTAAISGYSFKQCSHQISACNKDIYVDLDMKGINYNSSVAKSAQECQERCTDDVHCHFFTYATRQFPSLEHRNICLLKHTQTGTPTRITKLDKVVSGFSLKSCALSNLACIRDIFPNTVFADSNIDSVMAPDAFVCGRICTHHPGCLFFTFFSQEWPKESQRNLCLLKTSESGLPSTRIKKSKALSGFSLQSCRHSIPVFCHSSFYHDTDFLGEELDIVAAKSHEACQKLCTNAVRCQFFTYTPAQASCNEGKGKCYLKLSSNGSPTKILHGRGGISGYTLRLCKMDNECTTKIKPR
IC50 (Human Factor XIa) [nM],SMILES,aPTT EC1.5× (human plasma) [µM],aPTT EC2× (human plasma) [µM],further results
,"O=C(O)c1ccc(NC(=O)[C@H](Cc2ccccc2)n2cnc(-c3cc(Cl)ccc3-n3cc(Cl)nn3)cc2=O)cc1 [Compound A, (S)-4-(2-(4-(5-chloro-2-(4-chloro-1H-1,2,3-triazol-1-yl)phenyl)-6-oxopyrimidin-1(6H)-yl)-3-phenylpropanamido)benzoic acid, reference compound]",,,"F (Rat pharmacokinetics; ig): 8.2%; AUC (Rat pharmacokinetics; iv): 1410 ng·h/mL; Cmax (Rat pharmacokinetics; iv): 4600 ng/mL; Tmax (Rat pharmacokinetics; iv): 4.98 min; clearance (Rat pharmacokinetics; iv): 11.9 mL/min/kg; half-life (Rat pharmacokinetics; iv): 35.3 min; Vd (Rat pharmacokinetics; iv): 0.124 L/kg; AUC (Rat pharmacokinetics; po, ig): 576 ng·h/mL; Cmax (Rat pharmacokinetics; po, ig): 180 ng/mL; Tmax (Rat pharmacokinetics; po, ig): 30 min; half-life (Rat pharmacokinetics; po, ig): 75.6 min"
,"CC(=O)c1ccc(Cl)cc1-c1cnn([C@@H](Cc2ccccc2)C(=O)Nc2ccc(C(=O)O)cc2)c(=O)c1 [Example 1, (S)-4-(2-(4-(2-acetyl-5-chlorophenyl)-6-oxopyridazin-1(6H)-yl)-3-phenylpropanamido)benzoic acid]",9.31,>30,
45.6,COc1nn(C(Cc2ccc(F)cc2)C(=O)Nc2ccc(C(=O)O)cc2)c(=O)cc1-c1cc(Cl)ccc1C(C)=O (stereo not shown) [Example 2],3.455,>15,
51.2,"COc1nn(C(Cc2ccc(Br)cc2)C(=O)Nc2ccc(C(=O)O)cc2)c(=O)cc1-c1cc(Cl)ccc1C(C)=O (stereo not shown) [Example 3, 4-(2-(4-(2-acetyl-5-chlorophenyl)-3-methoxy-6-oxopyridazin-1(6H)-yl)-3-(4-bromophenyl)propanamido)benzoic acid]",,,
32.6,"COc1nn(C(Cc2ccc(N3CCN(C(C)C)CC3=O)cc2)C(=O)Nc2ccc(C(=O)O)cc2)c(=O)cc1-c1cc(Cl)ccc1C(C)=O (stereo not shown) [Example 4, 4-(2-(4-(2-acetyl-5-chlorophenyl)-3-methoxy-6-oxopyridazin-1(6H)-yl)-3-(4-(4-isopropyl-2-oxopiperazin-1-yl)phenyl)propanamido)benzoic acid]",2.171,11.938,
8.89,CCOCC1CCN(c2ccc(CC(C(=O)Nc3ccc(C(=O)O)cc3)n3nc(OC)c(-c4cc(Cl)ccc4C(C)=O)cc3=O)cc2)C(=O)C1 (stereo not shown) [Example 5],1.18,4.414,
,"CC(=O)c1ccc(Cl)cc1-c1cc(=O)n([C@@H](Cc2ccccc2)C(=O)Nc2ccc(C(=O)O)cc2)nc1OCCO [Example 6, (S)-4-(2-(4-(2-acetyl-5-chlorophenyl)-3-(2-hydroxyethoxy)-6-oxopyridazine-1(6H)-yl)-3-phenylpropanamido)benzoic acid]",0.771,2.892,"F (Rat pharmacokinetics; ig): 1.7%; AUC (Rat pharmacokinetics; iv): 604 ng·h/mL; Cmax (Rat pharmacokinetics; iv): 1370 ng/mL; Tmax (Rat pharmacokinetics; iv): 4.98 min; clearance (Rat pharmacokinetics; iv): 27.6 mL/min/kg; half-life (Rat pharmacokinetics; iv): 9.72 min; Vd (Rat pharmacokinetics; iv): 0.432 L/kg; Cmax (Rat pharmacokinetics; po, ig): 30.5 ng/mL; Tmax (Rat pharmacokinetics; po, ig): 60 min"
24.2,"COc1nn(C(Cc2ccc(C)cc2)C(=O)Nc2ccc(C(=O)O)cc2)c(=O)cc1-c1cc(Cl)ccc1C(C)=O (stereo not shown) [Example 7, 4-(2-(4-(2-acetyl-5-chlorophenyl)-3-methoxy-6-oxopyridazine-1(6H)-yl)-3-(p-tolyl)propanamido)benzoic acid]",2.073,12.58,
30.3,"COc1nn(C(Cc2cccc(C)c2)C(=O)Nc2ccc(C(=O)O)cc2)c(=O)cc1-c1cc(Cl)ccc1C(C)=O (stereo not shown) [Example 8, 4 (2-(4-(2-acetyl-5-chlorophenyl)-3-methoxy-6-oxopyridazine-1(6H)-yl)-3-(m-tolyl)propanamido)benzoic acid]",2.67,>15,
59.3,"COc1nn([C@@H](Cc2ccccc2)C(=O)Nc2ccc(C(=O)O)c(F)c2)c(=O)cc1-c1cc(Cl)ccc1C(C)=O [Example 14, (S)-4-(2-(4-(2-acetyl-5-chlorophenyl)-3-methoxy-6-oxopyridazin-1(6H)-yl)-3-phenylpropanamido)-2-fluorobenzoic acid]",,,
20.6,"CC(=O)c1ccc(Cl)cc1-c1cc(=O)n([C@@H](Cc2ccccc2)C(=O)Nc2ccc(C(=O)O)cc2)nc1OCC1CC1 [Example 20, (S)-4-(2-(4-(2-acetyl-5-chlorophenyl)-3-(cyclopropylmethoxy)-6-oxopyridazin-1(6H)-yl)-3-phenylpropanamido)benzoic acid]",2.418,28.32,
16.2,"CC(=O)c1ccc(Cl)cc1-c1cc(=O)n([C@@H](Cc2ccccc2)C(=O)Nc2ccc(C(=O)O)cc2)nc1OC(C)C [Example 22, (S)-4-(2-(4-(2-acetyl-5-chlorophenyl)-3-isopropoxy-6-oxopyridazin-1(6H)-yl)-3-phenylpropanamido)benzoic acid]",1.346,9.382,
22.5,"CC(=O)c1ccc(Cl)cc1-c1cc(=O)n([C@@H](Cc2ccccc2)C(=O)Nc2ccc(C(=O)O)cc2)nc1OCC(F)(F)F [Example 23, (S)-4-(2-(4-(2-acetyl-5-chlorophenyl)-6-oxo-3-(2,2,2-trifluoroethoxy)pyridazine-1(6H)-yl)-3-phenylpropanamido)benzoic acid]",4.236,>15,
79.5,"COc1nn([C@@H](Cc2ccccc2)C(=O)Nc2ccc(C(=O)O)c(Cl)c2)c(=O)cc1-c1cc(Cl)ccc1C(C)=O [Example 27, (S)-4-(2-(4-(2-acetyl-5-chlorophenyl)-3-methoxy-6-oxopyridazin-1(6H)-yl)-3-phenylpropanamido)-2-chlorobenzoic acid]",,,
218,"COc1cc(NC(=O)[C@H](Cc2ccccc2)n2nc(OC)c(-c3cc(Cl)ccc3C(C)=O)cc2=O)ccc1C(=O)O [Example 28, (S)-4-(2-(4-(2-acetyl-5-chlorophenyl)-3-methoxy-6-oxopyridazin-1(6H)-yl)-3-phenylpropan amido)-2-methoxybenzoic acid]",,,
63.8,"COc1nn([C@@H](Cc2ccccc2)C(=O)Nc2ccc(C(=O)O)c(O)c2)c(=O)cc1-c1cc(Cl)ccc1C(C)=O [Example 29, (S)-4-(2-(4-(2-acetyl-5-chlorophenyl)-3-methoxy-6-oxopyridazin-1(6H)-yl)-3-phenylpropan amido)-2-hydroxybenzoic acid]",,,
140,"CC(=O)c1ccc(Cl)cc1-c1cc(=O)n([C@@H](Cc2ccccc2)C(=O)Nc2ccc(C(=O)O)cc2)nc1O [Example 34, (S)-4-(2-(4-(2-acetyl-5-chlorophenyl)-3-hydroxy-6-oxopyridazin-1(6H)-yl)-3-phenylpropanamido)benzoic acid]",,,
1400,"O=C(O)c1ccc(NC(=O)[C@H](Cc2ccccc2)n2ncc(-c3c(F)ccc(Cl)c3F)cc2=O)cc1 [Example 42, (S)-4-(2-(4-(3-chloro-2,6-difluorophenyl)-6-oxopyridazin-1(6H)-yl)-3-phenylpropanamido)benzoic acid]",,,
